Test results taken from ChEMBL document CHEMBL1201862, “PubChem BioAssay data set” (2004).
Where “and” joins values, the source holds several entries; their conditions need not be identical. Equal entries are not always repeated. Calls of active or inactive are those of the source.

What was measured:
[1] = biological target: T1, Sentrin-specific protease 8 (Homo sapiens, UniProt Q96LD8); type: functional
T1 sequence (Q96LD8 whole entry): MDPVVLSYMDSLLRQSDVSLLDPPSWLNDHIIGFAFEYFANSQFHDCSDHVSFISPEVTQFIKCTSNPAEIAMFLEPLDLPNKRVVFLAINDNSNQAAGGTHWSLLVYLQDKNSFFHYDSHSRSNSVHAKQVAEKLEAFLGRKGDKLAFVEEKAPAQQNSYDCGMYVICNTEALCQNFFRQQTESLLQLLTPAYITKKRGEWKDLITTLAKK

[2] = biological target: T1, Sentrin-specific protease 8; type: functional; remark: listed apart in the source
Mu-type opioid receptor = Mu-type opioid receptor (Homo sapiens, UniProt P35372); type: functional, cell-based;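 also: U2OS cells with beta-arrestin recruitment to OPRM1 by beta-gal complementation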
Mu-type opioid receptor, sequence (P35372 whole entry): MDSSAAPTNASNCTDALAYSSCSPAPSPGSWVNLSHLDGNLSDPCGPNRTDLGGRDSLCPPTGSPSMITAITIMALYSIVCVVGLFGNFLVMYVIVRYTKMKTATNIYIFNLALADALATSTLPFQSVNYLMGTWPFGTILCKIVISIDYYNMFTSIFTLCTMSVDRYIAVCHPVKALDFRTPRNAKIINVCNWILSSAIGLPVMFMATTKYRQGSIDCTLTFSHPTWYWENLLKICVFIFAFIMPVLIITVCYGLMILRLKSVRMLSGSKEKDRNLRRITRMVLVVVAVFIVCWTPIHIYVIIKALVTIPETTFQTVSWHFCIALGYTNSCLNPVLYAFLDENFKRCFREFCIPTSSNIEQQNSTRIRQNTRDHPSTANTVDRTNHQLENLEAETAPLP

[3] = biological target: 5-hydroxytryptamine receptor 2A (Mus musculus, UniProt P35363); type: functional, cell-based;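 also: CHO-K1 cells with tagged receptor and beta-arrestin; agonist potency measured as compound-induced activation of the receptor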
5-hydroxytryptamine receptor 2A, sequence (P35363 whole entry): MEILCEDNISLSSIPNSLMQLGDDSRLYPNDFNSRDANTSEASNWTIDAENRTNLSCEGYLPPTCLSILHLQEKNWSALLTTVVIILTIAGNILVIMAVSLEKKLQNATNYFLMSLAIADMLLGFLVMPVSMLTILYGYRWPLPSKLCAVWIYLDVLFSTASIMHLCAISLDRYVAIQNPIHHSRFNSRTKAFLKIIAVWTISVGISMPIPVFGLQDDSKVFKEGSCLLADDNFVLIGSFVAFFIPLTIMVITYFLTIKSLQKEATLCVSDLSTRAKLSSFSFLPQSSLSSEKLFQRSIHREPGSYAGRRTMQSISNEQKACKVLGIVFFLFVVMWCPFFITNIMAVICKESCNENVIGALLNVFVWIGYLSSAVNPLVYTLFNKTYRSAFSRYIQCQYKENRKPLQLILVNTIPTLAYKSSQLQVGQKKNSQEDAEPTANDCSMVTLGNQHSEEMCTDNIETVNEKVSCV

[4] = biological target: Tyrosine-protein phosphatase non-receptor type 11 (Homo sapiens, UniProt Q06124); assay: PTPN11 enzyme inhibitors – biochemical, selectivity assay for STEP inhibitor project, dose response (AID 602367); type: functional; conditions: read-out: IC50_Mean
Tyrosine-protein phosphatase non-receptor type 11, sequence (Q06124 whole entry): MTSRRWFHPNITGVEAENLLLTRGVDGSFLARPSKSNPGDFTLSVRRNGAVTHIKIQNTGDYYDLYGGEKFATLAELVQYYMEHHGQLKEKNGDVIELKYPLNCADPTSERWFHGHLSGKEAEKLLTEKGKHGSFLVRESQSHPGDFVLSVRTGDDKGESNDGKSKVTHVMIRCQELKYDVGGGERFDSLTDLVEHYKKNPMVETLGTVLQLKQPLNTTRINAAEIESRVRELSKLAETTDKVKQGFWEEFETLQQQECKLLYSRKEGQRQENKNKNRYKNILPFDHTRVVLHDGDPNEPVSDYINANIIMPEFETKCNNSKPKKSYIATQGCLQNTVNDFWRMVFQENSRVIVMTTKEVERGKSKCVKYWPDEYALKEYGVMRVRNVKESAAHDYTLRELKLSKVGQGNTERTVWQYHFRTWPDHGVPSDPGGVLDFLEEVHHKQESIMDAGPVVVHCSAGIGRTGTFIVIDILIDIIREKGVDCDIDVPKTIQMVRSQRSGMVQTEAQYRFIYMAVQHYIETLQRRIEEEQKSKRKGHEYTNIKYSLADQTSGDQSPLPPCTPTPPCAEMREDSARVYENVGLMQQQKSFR

[5] = biological target: Dual specificity protein phosphatase 3 (Homo sapiens, UniProt P51452); assay: VHR phosphatase inhibition, dose response, selectivity assay for STEP inhibitor project, biochemical (AID 602374); type: functional; conditions: read-out: IC50_Mean
Dual specificity protein phosphatase 3, sequence (P51452 whole entry): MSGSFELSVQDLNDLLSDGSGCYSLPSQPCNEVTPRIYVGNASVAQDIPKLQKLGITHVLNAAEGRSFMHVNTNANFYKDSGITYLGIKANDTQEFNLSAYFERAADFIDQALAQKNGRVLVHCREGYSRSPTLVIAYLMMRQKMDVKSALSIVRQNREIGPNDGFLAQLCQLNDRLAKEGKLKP

[6] = biological target: Tyrosine-protein phosphatase non-receptor type 5 (Homo sapiens, UniProt P54829); assay: PTPN5 enzyme inhibition – biochemical, fluorescence intensity, uHTS hits, confirmation (AID 602372); type: functional; conditions: read-out: IC50_Mean
Tyrosine-protein phosphatase non-receptor type 5, sequence (P54829 whole entry): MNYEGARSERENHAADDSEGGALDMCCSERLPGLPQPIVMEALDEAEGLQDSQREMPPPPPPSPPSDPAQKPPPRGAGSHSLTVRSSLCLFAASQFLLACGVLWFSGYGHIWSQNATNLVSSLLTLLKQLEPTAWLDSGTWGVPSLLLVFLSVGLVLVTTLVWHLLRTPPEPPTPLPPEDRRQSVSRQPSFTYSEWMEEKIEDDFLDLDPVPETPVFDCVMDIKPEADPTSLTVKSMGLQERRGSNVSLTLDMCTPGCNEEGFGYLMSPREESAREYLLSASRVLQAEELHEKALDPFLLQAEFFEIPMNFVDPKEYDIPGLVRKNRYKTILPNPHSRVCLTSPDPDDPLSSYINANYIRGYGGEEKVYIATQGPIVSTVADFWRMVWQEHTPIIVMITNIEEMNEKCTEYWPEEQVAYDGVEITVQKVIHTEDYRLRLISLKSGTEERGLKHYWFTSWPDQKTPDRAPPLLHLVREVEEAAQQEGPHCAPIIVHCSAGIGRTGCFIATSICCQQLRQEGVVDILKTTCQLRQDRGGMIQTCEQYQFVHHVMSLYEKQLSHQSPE

[7] = biological target: T2, Tyrosine-protein phosphatase non-receptor type 22 (Homo sapiens, UniProt Q9Y2R2); assay: lymphoid phosphatase LYP inhibitors – biochemical, selectivity assay for STEP inhibitor project, dose response (AID 624241); type: functional
T2 sequence (Q9Y2R2 whole entry): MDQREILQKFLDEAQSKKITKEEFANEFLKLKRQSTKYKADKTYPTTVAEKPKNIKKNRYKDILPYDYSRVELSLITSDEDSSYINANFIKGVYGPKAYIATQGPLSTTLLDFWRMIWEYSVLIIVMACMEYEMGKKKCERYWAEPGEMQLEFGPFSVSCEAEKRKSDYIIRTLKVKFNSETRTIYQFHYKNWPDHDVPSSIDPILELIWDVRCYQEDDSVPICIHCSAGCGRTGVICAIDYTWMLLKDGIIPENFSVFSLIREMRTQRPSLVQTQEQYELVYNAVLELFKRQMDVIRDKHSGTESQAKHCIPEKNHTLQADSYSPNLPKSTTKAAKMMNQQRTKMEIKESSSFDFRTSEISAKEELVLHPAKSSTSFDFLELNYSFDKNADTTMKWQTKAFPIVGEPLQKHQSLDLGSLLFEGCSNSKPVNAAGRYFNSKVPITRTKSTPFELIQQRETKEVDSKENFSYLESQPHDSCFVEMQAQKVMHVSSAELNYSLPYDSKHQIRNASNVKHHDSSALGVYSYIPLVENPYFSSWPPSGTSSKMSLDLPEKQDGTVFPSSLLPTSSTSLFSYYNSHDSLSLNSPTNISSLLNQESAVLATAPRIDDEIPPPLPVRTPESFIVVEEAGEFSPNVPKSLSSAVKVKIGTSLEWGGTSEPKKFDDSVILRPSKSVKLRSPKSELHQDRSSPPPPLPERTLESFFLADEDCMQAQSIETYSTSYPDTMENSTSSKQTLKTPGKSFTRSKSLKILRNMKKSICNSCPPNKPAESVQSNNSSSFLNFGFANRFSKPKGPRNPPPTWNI

[8] = biological target: T3, Beta-2 adrenergic receptor (Homo sapiens, UniProt P07550); assay: Dose response for HTS for Beta-2AR agonists via FAP method from Powderset1.; type: functional
T3 sequence (P07550 whole entry): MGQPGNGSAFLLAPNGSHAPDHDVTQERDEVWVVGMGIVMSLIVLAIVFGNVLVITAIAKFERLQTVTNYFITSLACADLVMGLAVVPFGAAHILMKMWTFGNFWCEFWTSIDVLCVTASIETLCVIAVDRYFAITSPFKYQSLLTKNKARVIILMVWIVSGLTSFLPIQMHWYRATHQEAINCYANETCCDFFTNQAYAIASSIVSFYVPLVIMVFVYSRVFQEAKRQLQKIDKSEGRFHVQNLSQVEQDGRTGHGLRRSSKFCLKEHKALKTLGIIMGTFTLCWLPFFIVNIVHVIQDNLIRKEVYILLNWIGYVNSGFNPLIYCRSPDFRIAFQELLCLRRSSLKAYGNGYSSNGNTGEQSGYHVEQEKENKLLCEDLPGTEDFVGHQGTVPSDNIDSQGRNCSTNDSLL

[9] = biological target: T3, Beta-2 adrenergic receptor; assay: ADRB2 activation measured by internalization – cell-based, FAP fluorogen, flow cytometry, cherry pick 1, dose response (AID 588763); type: functional
[10] = biological target: Broad substrate specificity ATP-binding cassette transporter ABCG2 (Homo sapiens, UniProt Q9UNQ0); assay: blockers of JC-1 export by ABCG2 – Ig-MXP3 cells, flow cytometry, dose response (AID 1690); type: functional
Broad substrate specificity ATP-binding cassette transporter ABCG2, sequence (Q9UNQ0 whole entry): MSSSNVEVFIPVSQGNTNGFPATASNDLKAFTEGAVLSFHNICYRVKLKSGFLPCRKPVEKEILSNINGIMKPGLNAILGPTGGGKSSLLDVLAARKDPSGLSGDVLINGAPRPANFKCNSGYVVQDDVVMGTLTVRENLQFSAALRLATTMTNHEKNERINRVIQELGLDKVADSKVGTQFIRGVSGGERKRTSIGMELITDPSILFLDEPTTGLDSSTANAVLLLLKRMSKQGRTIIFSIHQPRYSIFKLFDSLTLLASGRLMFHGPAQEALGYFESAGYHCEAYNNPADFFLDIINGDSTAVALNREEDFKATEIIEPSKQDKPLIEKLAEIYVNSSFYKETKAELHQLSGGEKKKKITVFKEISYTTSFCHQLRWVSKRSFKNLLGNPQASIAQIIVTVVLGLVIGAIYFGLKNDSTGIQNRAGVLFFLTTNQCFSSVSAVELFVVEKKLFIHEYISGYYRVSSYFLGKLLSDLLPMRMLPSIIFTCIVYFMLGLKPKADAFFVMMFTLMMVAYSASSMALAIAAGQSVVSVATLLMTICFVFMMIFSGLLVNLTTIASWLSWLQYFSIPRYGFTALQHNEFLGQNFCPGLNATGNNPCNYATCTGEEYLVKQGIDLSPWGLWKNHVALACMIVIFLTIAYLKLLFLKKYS

[11] = biological target: T4, Trace amine-associated receptor 1 (Homo sapiens, UniProt Q96RJ0); assay: Fluorescence-based cell-based high throughput dose response assay to identify agonists of the human trace amine associated receptor 1 (TAAR1).; type: functional
T4 sequence (Q96RJ0 whole entry): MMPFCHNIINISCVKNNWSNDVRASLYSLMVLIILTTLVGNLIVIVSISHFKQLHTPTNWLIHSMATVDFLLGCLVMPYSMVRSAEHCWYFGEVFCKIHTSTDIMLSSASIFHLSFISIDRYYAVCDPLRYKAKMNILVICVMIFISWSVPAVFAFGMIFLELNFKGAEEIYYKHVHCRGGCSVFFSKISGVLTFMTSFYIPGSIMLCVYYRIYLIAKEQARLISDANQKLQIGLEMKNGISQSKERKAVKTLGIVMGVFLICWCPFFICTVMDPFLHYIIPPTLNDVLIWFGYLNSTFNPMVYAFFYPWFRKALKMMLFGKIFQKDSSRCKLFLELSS

cells [12] = type: functional, cell-based
cells [13] = type: functional, cell-based; remark: listed apart in the source
[14] = biological target: T4, Trace amine-associated receptor 1; assay: Counterscreen for agonists of the human trace amine associated receptor 1 (hTAAR1): Fluorescence-based cell-based high throughput dose response assay to identify hTAAR1 agonist that also desensitize TAAR1 receptor response.; type: functional
[15] = biological target: T5, Polyadenylate-binding protein 1 (Homo sapiens, UniProt P11940); assay: MLLE binding blockers, Cy5 peptide tracer – biochemical, fluorescence polarization, Cy5-PAM2 peptide, secondary, miRNA deadenylation inhibitor project, dose response (AID 602260); type: functional; conditions: read-out: IC50_Mean
T5 sequence (P11940 whole entry, the tested form may be a part): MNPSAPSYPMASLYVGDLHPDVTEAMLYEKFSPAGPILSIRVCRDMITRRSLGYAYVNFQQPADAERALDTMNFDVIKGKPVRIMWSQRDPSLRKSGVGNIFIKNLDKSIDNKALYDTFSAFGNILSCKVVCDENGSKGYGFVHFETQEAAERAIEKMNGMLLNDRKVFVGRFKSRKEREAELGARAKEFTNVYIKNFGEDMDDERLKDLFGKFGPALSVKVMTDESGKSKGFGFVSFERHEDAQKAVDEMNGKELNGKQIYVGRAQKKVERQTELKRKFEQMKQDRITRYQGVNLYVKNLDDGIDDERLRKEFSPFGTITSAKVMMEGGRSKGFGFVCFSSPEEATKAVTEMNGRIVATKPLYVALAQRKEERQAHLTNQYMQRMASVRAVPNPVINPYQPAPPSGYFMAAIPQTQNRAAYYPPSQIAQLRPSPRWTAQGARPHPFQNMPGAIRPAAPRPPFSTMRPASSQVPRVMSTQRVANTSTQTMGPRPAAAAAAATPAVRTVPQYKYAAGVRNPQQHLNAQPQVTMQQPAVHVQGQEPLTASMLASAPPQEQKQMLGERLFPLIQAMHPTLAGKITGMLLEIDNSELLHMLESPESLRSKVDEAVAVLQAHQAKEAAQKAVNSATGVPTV

[16] = biological target: T5, Polyadenylate-binding protein 1; assay: MLLE domain peptide-binding blockers, IC50 – biochemical, fluorescence polarization, FITC-PAM2 peptide, dose response (AID 602259); type: functional; conditions: read-out: IC50_Mean
[17] = biological target: Long-chain-fatty-acid--AMP ligase FadD28 (Mycobacterium tuberculosis, UniProt P9WQ59); assay: Fluorescence polarization aasay to screen for inhibitors that compete for the binding of FadD28 to a bisubstrate Measured in Biochemical System Using Plate Reader - 2147-01_Inhibitor_Dose_CherryPick_Activity.; type: functional, Mycobacterium tuberculosis H37Rv
Long-chain-fatty-acid--AMP ligase FadD28, sequence (P9WQ59 whole entry): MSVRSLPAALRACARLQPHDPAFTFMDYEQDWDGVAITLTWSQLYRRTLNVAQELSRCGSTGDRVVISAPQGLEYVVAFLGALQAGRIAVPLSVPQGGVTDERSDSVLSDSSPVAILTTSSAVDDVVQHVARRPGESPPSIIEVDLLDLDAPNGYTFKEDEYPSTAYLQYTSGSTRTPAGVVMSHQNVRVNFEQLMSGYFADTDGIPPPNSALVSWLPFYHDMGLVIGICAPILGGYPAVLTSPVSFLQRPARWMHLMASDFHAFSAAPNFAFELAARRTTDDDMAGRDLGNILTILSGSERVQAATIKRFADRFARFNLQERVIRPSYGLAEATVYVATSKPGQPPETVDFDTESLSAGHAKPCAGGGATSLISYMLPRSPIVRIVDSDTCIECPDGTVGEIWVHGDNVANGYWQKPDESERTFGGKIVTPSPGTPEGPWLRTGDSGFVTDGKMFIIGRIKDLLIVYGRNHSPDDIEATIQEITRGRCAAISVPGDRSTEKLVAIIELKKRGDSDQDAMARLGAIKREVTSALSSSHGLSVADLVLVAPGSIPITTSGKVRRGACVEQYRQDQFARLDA

[18] = cytotoxicity in HEK293 background cells – cell-based, dry powder, set 2, counter-screen for EBV LMP1 inhibitor project, dose response (AID 624374); type: functional
[19] = CMV-driven luciferase expression suppression in HEK293 – cell-based, luminescence, dry powder, counter-screen for Pax8 inhibitor project, dose response (AID 743020); type: functional
Paired box protein Pax-8 = Paired box protein Pax-8 (Homo sapiens, UniProt Q06710); assay: PAX8 transcriptional activity inhibition in RMG-I – RMG-I cells, luciferase, cherry-pick, dose response (AID 687027); type: functional, cell-based;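 also: luciferase reporter driven by Pax8 target thyroperoxidase promoter measured by SteadyGlo luminescence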
Paired box protein Pax-8, sequence (Q06710 whole entry): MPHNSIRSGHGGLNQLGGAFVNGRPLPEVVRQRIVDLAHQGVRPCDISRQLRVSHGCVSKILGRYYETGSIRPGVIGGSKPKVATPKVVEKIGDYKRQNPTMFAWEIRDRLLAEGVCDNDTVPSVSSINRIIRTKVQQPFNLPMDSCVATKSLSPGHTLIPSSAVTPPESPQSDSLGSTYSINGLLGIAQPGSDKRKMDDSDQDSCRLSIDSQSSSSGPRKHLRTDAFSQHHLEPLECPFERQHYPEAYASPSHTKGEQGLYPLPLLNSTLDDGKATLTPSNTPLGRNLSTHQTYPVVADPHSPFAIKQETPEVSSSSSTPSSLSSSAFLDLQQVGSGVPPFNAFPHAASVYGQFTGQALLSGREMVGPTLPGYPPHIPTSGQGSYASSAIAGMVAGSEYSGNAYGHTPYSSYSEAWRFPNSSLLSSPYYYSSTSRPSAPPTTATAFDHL

For Nc1cc(N)cc(C(=O)c2ccccc2)c1, the IC50 [1] was 10.4 µM (active) and the IC50 [2] was 13.8 µM (active).

In the case of Clc1ccc(CN2CCN(c3ncccn3)CC2)cc1Cl, the EC50 (Mu-type opioid receptor) is reported as 92.5 µM (inactive) and the EC50 [3] is reported as 0.424 µM (active).

For Cc1c(C)c2ccc(OCC(=O)Nc3ccc(S(N)(=O)=O)cc3)c(C)c2oc1=O, the IC50 [4] was 6.82 µM (active), the IC50 [5] was 10.8 µM (active) and the IC50 [6] was 22.9 µM (inactive). The IC50 [7] was 44.9 µM (inactive).

With Cc1ccc(S(=O)(=O)N(C)CC(=O)N2CCN(c3ccccn3)CC2)cc1 the EC50 [8] was 0.002 µM (active) and the EC50 [9] was 167 nM (active) and 60.7 nM (active).

In the case of O=[N+]([O-])c1ccc(Nc2nc(Cl)nc(NCCO)n2)cc1, the EC50 [10] is reported as 4.63 µM (active).

With O=C(NCCc1ccccc1)C(=O)NCC1OCCN1S(=O)(=O)c1ccc2c(c1)OCCO2 (stereo unspecified) the EC50 [11] was 5.13 µM (active), the IC50 (cells [12]) was > 29.9 µM (inactive) and the EC50 (cells [13]) was > 29.9 µM (inactive). The IC50 [14] was 8.98 µM (active).

With COc1ccc(NC(=O)CSc2ccc([N+](=O)[O-])cc2)cc1S(=O)(=O)N1CCOCC1 the IC50 [15] was > 66 µM (inactive), the IC50 [16] was > 66 µM (inactive) and the AC50 [17] was 24.7 µM (active).

Molecule COC(=O)C[C@H]1C[C@H]2c3cc(NC(=O)CN(C)C)ccc3O[C@H]2[C@H](CO)O1 has an AbsAC35 [18] of 110.27 µM.

For Cc1ccc(S(=O)(=O)CCC(=O)c2ccc(F)cc2)cc1, the AC50 [19] was 27.9 µM (active) and the AC50 (Paired box protein Pax-8) was 11.3 µM (active).
